Test results taken from US20060063759A1, “Tricyclic steroid hormone nuclear receptor modulators” (priority 2002, published 2006).

Legend:
glucocorticoid receptor = biological target: T1, glucocorticoid receptor (Homo sapiens, UniProt P04150); assay: Glucocorticoid Receptor Binding Assay ([3H]-dexamethasone, A549 cell extract); details: [3H]-dexamethasone binding, read-out: GR Ki
T1 construct: containing 50-200 ug of A549 cell extract and 1.86 nM [^3H]-dexamethasone; host or cells: A549 human lung epithelial cells (sonicated cell extract)
T1 sequence (P04150 1-777): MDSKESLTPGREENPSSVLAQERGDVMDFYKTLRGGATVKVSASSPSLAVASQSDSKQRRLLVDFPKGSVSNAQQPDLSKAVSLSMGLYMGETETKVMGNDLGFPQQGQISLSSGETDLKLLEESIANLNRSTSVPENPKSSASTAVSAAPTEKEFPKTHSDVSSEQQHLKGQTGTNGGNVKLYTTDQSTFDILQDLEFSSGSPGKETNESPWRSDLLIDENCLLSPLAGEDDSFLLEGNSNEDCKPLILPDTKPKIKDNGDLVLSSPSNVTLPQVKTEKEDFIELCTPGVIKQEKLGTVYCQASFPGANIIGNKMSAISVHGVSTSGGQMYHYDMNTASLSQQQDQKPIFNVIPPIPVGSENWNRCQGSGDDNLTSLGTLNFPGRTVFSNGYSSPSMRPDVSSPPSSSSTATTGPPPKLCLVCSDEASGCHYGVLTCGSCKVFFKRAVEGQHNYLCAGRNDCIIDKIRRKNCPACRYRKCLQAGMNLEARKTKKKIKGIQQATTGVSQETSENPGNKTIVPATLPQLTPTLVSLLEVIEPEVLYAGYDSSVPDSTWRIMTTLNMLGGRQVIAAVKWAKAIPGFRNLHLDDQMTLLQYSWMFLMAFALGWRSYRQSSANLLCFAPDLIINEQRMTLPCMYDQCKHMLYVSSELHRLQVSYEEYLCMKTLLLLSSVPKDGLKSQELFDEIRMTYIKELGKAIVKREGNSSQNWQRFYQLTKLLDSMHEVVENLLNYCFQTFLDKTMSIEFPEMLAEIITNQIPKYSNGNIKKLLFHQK
How it was run: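 Displacement of [3H]-dexamethasone (1.86 nM) from glucocorticoid receptor in sonicated A549 lung epithelial cell extracts, 16 h at 4 °C, pH 7.2 molybdate-containing buffer. Bound radioactivity was scintillation-counted after charcoal/dextran stripping of free ligand.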

human MR = biological target: T2, human MR (Homo sapiens, UniProt P08235); assay: Mineralocorticoid Receptor Binding Assay ([3H]-aldosterone); details: [3H]-aldosterone binding, human MR expressed in Sf9 cells; read-out: MR Ki
T2 construct: The full length human MR gene is cloned from a human kidney or human brain cDNA library; His tag from the pAcHLT vector (own knowledge); made in house; host or cells: Sf9 insect cells (baculovirus, pAcHLT transfer vector)
T2 sequence (P08235 1-984): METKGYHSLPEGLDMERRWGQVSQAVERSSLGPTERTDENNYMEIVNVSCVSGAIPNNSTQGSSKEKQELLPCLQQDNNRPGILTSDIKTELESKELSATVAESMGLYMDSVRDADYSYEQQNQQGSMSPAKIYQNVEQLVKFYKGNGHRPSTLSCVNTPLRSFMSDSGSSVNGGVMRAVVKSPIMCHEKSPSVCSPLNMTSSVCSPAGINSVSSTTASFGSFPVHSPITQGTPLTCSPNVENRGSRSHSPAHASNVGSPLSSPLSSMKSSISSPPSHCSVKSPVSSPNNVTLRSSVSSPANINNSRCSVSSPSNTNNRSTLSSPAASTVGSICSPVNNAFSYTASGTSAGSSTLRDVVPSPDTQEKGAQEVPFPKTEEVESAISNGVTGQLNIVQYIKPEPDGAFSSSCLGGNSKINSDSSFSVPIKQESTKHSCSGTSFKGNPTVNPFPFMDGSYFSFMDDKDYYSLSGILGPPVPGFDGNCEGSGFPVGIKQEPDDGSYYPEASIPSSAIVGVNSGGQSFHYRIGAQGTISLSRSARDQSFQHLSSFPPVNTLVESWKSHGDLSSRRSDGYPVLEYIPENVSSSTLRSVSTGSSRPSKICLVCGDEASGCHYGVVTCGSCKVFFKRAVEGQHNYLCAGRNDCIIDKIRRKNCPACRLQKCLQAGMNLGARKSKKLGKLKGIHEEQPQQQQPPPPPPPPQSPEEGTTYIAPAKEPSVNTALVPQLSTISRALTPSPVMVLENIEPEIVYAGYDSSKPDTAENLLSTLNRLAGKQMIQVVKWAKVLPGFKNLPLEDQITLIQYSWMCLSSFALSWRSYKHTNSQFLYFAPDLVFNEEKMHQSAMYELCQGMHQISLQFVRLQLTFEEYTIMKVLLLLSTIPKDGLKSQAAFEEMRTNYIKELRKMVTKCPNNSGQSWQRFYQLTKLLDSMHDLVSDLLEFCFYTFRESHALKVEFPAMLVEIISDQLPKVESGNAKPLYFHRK
How it was run: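 Receptor source: freeze-thaw lysate of baculovirus-infected Sf9 cells carrying full-length human MR, 20-25 μg protein. Incubation ~16 h at 4 °C with shaking, pH 7.5 buffer containing 30 mM sodium molybdate and 10% glycerol.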

| Structure (SMILES) | Ki (glucocorticoid receptor) | Ki (human MR) |
| --- | --- | --- |
| CS(=O)(=O)Nc1cccc(C=C2c3ccc(F)cc3CCc3cc(F)ccc32)c1 [Example 360] | < 1000 nM | < 500 nM |
| O=c1[nH]c2ccc(/C=C3\c4ccc(F)cc4CCc4ncccc43)cc2[nH]1 [Example 487, (E)-5-(8-Fluoro-10,11-dihydro-benzo[4,5]cyclohepta[1,2-b]pyridin-5-ylidenemethyl)-1,3-dihydro-benzoimidazol-2-one] | < 1000 nM | < 500 nM |
| FC(F)(F)c1ccccc1C=C1c2ccccc2CCc2cc(Cl)ccc21 [Example 174, 2-Chloro-5-(2-trifluoromethyl-benzylidene)-10,11-dihydro-5H-dibenzo[a,d]cycloheptene] | < 1000 nM | < 500 nM |
| O=Cc1cccc2c1CCc1ccccc1/C2=C/c1cccc(O)c1 [Example 379] | < 10000 nM | < 500 nM |
| O=c1[nH]c2ccc(/C=C3\c4ccccc4CCc4cc(C(F)F)ccc43)cc2[nH]1 [Example 453] | < 1000 nM | < 500 nM |
| O=c1[nH]c2ccc(/C=C3/c4ccccc4CCc4cc(F)ccc43)cc2[nH]1 [Example 449] | < 10000 nM | < 500 nM |
| Oc1cccc(/C=C2/c3ccccc3CCc3ncccc32)c1 [Example 507] | < 500 nM | < 500 nM |
| O=S(=O)(Nc1cccc(C=C2c3ccccc3CCc3ccccc32)c1)C(F)(F)F [Example 281] | < 10000 nM | < 500 nM |
| Cc1ccc2c(c1)CCc1ccccc1/C2=C/c1cccc(NS(C)(=O)=O)c1 [Example 326] | < 500 nM | < 500 nM |
| COc1ccc2c(c1)COc1ccccc1/C2=C(/C)c1cccc(NS(C)(=O)=O)c1 [Example 817] | < 500 nM | < 500 nM |
| CS(=O)(=O)Nc1cccc(C=C2c3ccccc3CCc3c2cccc3-c2ccccc2)c1 [Example 411] | < 500 nM | < 500 nM |
| Oc1cccc(/C=C2\c3ccccc3COc3cc(F)ccc32)c1 [Example 628] | < 500 nM | < 500 nM |
| COC(=O)c1cccc(/C=C2\c3ccc(F)cc3CCc3ncccc32)c1 [Example 585] | < 10000 nM | < 500 nM |
| CS(=O)(=O)Nc1cccc(/C=C2\c3ccccc3NC(=O)c3ccccc32)c1 [Example 261, N-[3-(6-Oxo-5,6-dihydro-dibenzo[b,e]azepin-11-ylidenemethyl)-phenyl]-methanesulfonamide] | < 500 nM | < 500 nM |
| O=c1[nH]c2cc(C=C3c4ccccc4C4CC4c4ccccc43)ccc2s1 (centres unmarked) [Example 605] | < 500 nM | < 500 nM |
| CS(=O)(=O)Nc1cccc(/C=C2/c3ccc(F)cc3COc3ccccc32)c1 [Example 724] | < 500 nM | < 500 nM |
| CS(=O)(=O)Nc1cccc(C=C2c3ccccc3CCc3c2ccc(Cl)c3Cl)c1 [197(a), N-[3-(1,2-Dichloro-10,11-dihydro-dibenzo[a,d]cyclohepten-5-ylidenemethyl)-phenyl]-methanesulfonamide] | < 500 nM | < 500 nM |
| Cc1ccc2c(c1)CCc1ccccc1C2=Cc1cccc(NS(C)(=O)=O)c1 [Example 302] | < 500 nM | < 500 nM |
| FC(F)(F)c1ccccc1CC1c2ccccc2CCc2ccccc21 [Example 283] | < 10000 nM | < 500 nM |
| CCC(=C1c2ccc(Cl)cc2CCc2cc(Cl)ccc21)c1cccc(NS(C)(=O)=O)c1 [Example 778] | < 500 nM | < 500 nM |
| COc1ccc2c(c1)[C@@H](Cc1cccc(NS(C)(=O)=O)c1)c1ccccc1CC2 [Example 349] | < 500 nM | < 500 nM |
| CC/C(=C1/c2ccc(OC)cc2COc2ccccc21)c1cccc(NS(C)(=O)=O)c1 [Example 821] | < 500 nM | < 500 nM |
| N#Cc1ccc(C=C2c3ccccc3CCc3cc(F)ccc32)cc1F [Example 336] | < 10000 nM | < 500 nM |
| O=c1[nH]c2cc(/C=C3\c4ccc(F)cc4COc4cc(F)ccc43)ccc2n1CCN1CCOCC1 [Example 617, 5-(3,8-Difluoro-6H-dibenzo[b,e]oxepin-11-ylidenemethyl)-1-(2-morpholin-4-yl-ethyl)-1,3-dihydro-benzoimidazol-2-one] | < 500 nM | < 500 nM |
| Oc1cccc(/C=C2\c3ccccc3CCc3cccc(Cl)c32)c1 [Example 370] | < 1000 nM | < 500 nM |

Now from value to molecule:

| Ki (glucocorticoid receptor) | Ki (human MR) | Structure (SMILES) |
| --- | --- | --- |
| < 500 nM | < 500 nM | O=c1[nH]c2cc(/C=C3/c4ccccc4COc4cc(F)ccc43)ccc2n1C1CC1 [Example 709] |
| < 500 nM | < 500 nM | C/C(=C1\c2ccccc2CCc2cc(Cl)ccc21)c1cccc(NS(C)(=O)=O)c1 [Example 793] |
| < 500 nM | < 500 nM | Cc1ccc2c(c1)CCc1cc(F)ccc1/C2=C/c1cccc(NS(C)(=O)=O)c1 [Example 422] |
| < 500 nM | < 500 nM | CS(=O)(=O)Nc1cc(/C=C2\c3ccc(F)cc3CCc3ncccc32)ccc1F [Example 524] |
| < 500 nM | < 500 nM | CS(=O)(=O)Nc1cc(F)cc(/C=C2/c3ccc(F)cc3CCc3ncccc32)c1 [Example 525] |
| < 500 nM | < 500 nM | CC(=C1c2ccc(Cl)cc2CCc2cc(Cl)ccc21)c1cccc(NS(C)(=O)=O)c1 [Example 777] |
| < 500 nM | < 500 nM | CS(=O)(=O)Nc1cccc(/C=C2\c3ccccc3CCc3cccc(Cl)c32)c1 [Example 365] |
| < 500 nM | < 500 nM | Oc1cccc(C=C2c3ccc(O)cc3CCc3cc(O)ccc32)c1 [Example 194, 5-(3-Hydroxy-benzylidene)-10,11-dihydro-5H-dibenzo[a,d]cycloheptene-2,8-diol] |
| < 500 nM | < 500 nM | Cc1ccc2c(c1)CSc1ccccc1/C2=C\c1cccc(NS(C)(=O)=O)c1 [Example 743] |
| < 500 nM | < 500 nM | Cc1cccc2c1C(=Cc1cccc(NS(C)(=O)=O)c1)c1ccccc1CC2 [Example 304] |
| < 500 nM | < 500 nM | CC(=C1c2ccccc2CCc2ccccc21)c1cccc(NS(C)(=O)=O)c1 [Example 765] |
| < 500 nM | < 500 nM | COc1ccc2c(c1)CCc1cc(C)ccc1/C2=C(\C)c1cccc(NS(C)(=O)=O)c1 [Example 829] |
| < 500 nM | < 500 nM | CS(=O)(=O)Nc1cccc(/C=C2/c3ccccc3CCc3ccsc32)c1 [Example 502] |
| < 500 nM | < 500 nM | CS(=O)(=O)Nc1cccc(/C=C2\c3ccccc3COc3cc(Cl)ccc32)c1 [Example 665] |
| < 500 nM | < 500 nM | CC(C)CS(=O)(=O)Nc1cccc(C=C2c3ccccc3CCc3ccccc32)c1 [Example 110, 2-Methyl-propane-1-sulfonic acid [3-(10,11-dihydro-dibenzo[a,d]cyclohepten-5-ylidenemethyl)-phenyl]-amide] |
